Experimental data reported in patent US11529344B2, “EZH2 inhibitor combination therapies” (Pfizer Inc., priority 2017, dated 2022).

What was measured:
DMS114 SCLC cells = assay: Cell growth inhibition assay for DMS114 SCLC cells; assay type: cell-based; settings: Homo sapiens, DMS-114, 17-21 days of treatment, mean of 6 biological replicates, read-out: Proliferation IC50 ± SD (nM) (n)
Protocol: (§1) COR-L88 (92031917) cells were purchased from ECACC. […] No. 1565565).
DMS114 SCLC cells were plated in complete cell culture medium described above (1 mL/well) in a 12-well clear, flat bottom polystyrene tissue culture plate (Falcon, Cat. 353225) at a density of 10,000 cells/well. Plates were incubated overnight for 16 hours at 37° C. and 5% CO2. Cells were then treated for 3 days with a 10-point, 3-fold serial dilution of Compound 1 starting at a high concentration of 3 μM. After 3 days, cells from each individual dose treatment were dissociated with Trypsin-EDTA (0.25%) (Gibco/Life Technologies Cat. 25200-056), resuspended in fresh medium, and counted using Vi-Cell cell counter and cell viability analyzer (Beckman Coulter, cat. 383556). […] Plates were then read in an Infinite M200 Pro microplate reader (Tecan Cat. 396235) using a fluorescence excitation wavelength of 540 nm to 570 nm (peak excitation is 570 nm) and emission at 580 nm to 610 nm (peak emission is 585 nm). IC50 values were calculated using nonlinear regression dose response curve fit in GraphPad Prism version 7.02.
The activity of Compound 1 in inhibiting cell proliferation of EZH2-WT DMS114 SCLC cells was also assessed using the cell proliferation assay for DMS114 SCLC cells described above. […]

H841 SCLC cells = assay: Cell growth inhibition assay, H841 SCLC cells; assay type: cell-based; settings: NCI-H841, 504 h; H841 cell line, 21 days of treatment; read-out: inhibition of cell proliferation, mean IC50
Protocol: as §1
(§2) H841, H446 and H69 cells were plated in their recommended complete culture medium described above (1 mL/well) in triplicate 12 well plates for each cell line at a density of 100,000 cells per well. Plates were incubated overnight at 37° C. and 5% CO2. Compound 1 stock was prepared at 50 mM in DMSO and was dispensed to several single-use aliquots and stored at −20° C. To prepare the compound plate, Compound 1 was diluted to 3 mM in DMSO and then 3-fold serial dilution were made in DMSO (10 doses in total). […] On Day 21, cell morphology was observed under microscope and any morphology changes upon compound treatment were recorded. […] Cell viability was measured using according to manufacturer's instructions.
(§3) Based on the strong activity observed with Compound 1 in DMS114 cells (see example 1 above), the antiproliferative activity of Compound 1 was also tested in 3 additional SCLC cell lines, namely H841, H446 and H69 using the cell proliferation assay described above. Each cell line was treated with different concentrations of Compound 1 using a 10-point dose curve (1:3 dilution in DMSO) with 3 μM to 0.1 nM for 21 days and then assessed for cell viability. […]

H69 SCLC cells = assay: Cell growth inhibition assay, H69 SCLC cells; assay type: cell-based; settings: Homo sapiens, NCI-H69, 504 h; H69 cell line, 21 days of treatment; read-out: inhibition of cell proliferation, mean IC50
Protocol: as §1, §2, §3

[1] = system: H3K27Me2 in DMS114 tumors; assay: H3K27Me2 ELISA on histones of DMS114 xenograft tumors; assay type: in vivo, female NOD/SCID mice; settings: Mus musculus, DMS-114, 1320 h; 300 mg/kg BID, tumors harvested at Day 55; read-out: maximum inhibition of H3K27Me2 in tumor samples
Protocol: Extracts were aliquoted and stored at −20° C. (short term) or −80° C. (long term). […] Data was analyzed using GraphPad Prism version 7.02.
The in vivo activity of Compound 1 against EZH2 in the DMS114 SCLC xenograft model was determined by measurement of the relative amount of cellular H3K27Me3 and Me2 levels with ELISA using the tumor tissue samples harvested at Day 55 from the study described in Example 3 above.

`COc1cc(C)[nH]c(=O)c1CN1CCc2c(Cl)cc([C@H](OC)C3COC3)c(Cl)c2C1=O` [Compound 1, 5,8-dichloro-2-[(4-methoxy-6-methyl-2-oxo-1,2-dihydro-pyridin-3-yl)methyl]-7-[(R)-methoxy(oxetan-3-yl)methyl]-3,4-dihydroisoquinolin-1(2H)-one] showed an IC50 (DMS114 SCLC cells) of 18.8 nM, an IC50 (H841 SCLC cells) of 73.2 nM and an IC50 (H69 SCLC cells) of 224 nM. For the same molecule, the inhibition at 300 mg/kg [1] was 82%.
